Values of other authors as cited in US20060106070A1, “Novel pyridine-based metal chelators as antiviral agents” (Bioflexis, LLC, priority 2004, published 2006).

Tests used:
[1] = target: T1, HIV-1 integrase (Human immunodeficiency virus type 1 group M subtype B, UniProt P12497); settings: result in words
T1 construct: HIV-1 recombinant IN (HIV-1NL 4-3 Integrase); purchased NIH AIDS Reagent program 2959

[2] = target: T1, HIV-1 integrase; settings: result in words; remark: listed apart in the source

SMILES | inhibition of strand transfer reaction [1] | inhibition of 3′ processing [2]
O=C(O)C(=O)CC(=O)c1cc(OCc2ccccc2)cc(OCc2ccccc2)c1 [L-708, 906] | inhibit strand transfer reaction | do not inhibit 3′ processing
O=C(O)C(=O)CC(=O)c1cccn1Cc1ccc(F)cc1 [L-731,988] | inhibit strand transfer reaction | do not inhibit 3′ processing
